From article PMC12300041, “Tricyclic Isatin Derivatives as Anti-Inflammatory Compounds with High Kinase Binding Affinity” (Molecules, 2025)

What was measured:
Experiment in all cases: KINOMEscan
FLT3 (ITD, F691L) = format: binding, human; settings: 10 μM
Experimental: (§1) Kinase profiling was performed by KINOMEscan (Eurofins Pharma Discovery, San Diego, CA, USA), using a panel of 423 protein kinases, as described previously. Compounds were submitted for dissociation constant (Kd) determination toward several target kinases using KINOMEscan. […] Binding reactions were performed at room temperature for 1 h, and the fraction of kinase not bound to the test compound was determined by capture with an immobilized affinity ligand and quantified by quantitative polymerase chain reaction. The primary screening at fixed concentrations of the compound was performed in duplicate. For dissociation constant Kd determination, a 12-point half-log dilution series (a maximum concentration of 33 μM) was used.

[1] = system: EGFR (L747-T751 del, Sins); format: binding, human; settings: 10 μM
Experimental: as §1

FLT3 (ITD) = format: binding, human; settings: 10 μM
Experimental: as §1

FLT3 (ITD, D835V) = format: binding, human; settings: 10 μM
Experimental: as §1

IRAK4 = molecular target: T1, IRAK4 (Homo sapiens, UniProt Q9NWZ3); format: binding
T1 construct: purchased Eurofins DiscoverX KINOMEscan
Experimental: as §1

MAP3K19 = molecular target: T2, MAP3K19 (Homo sapiens, UniProt Q56UN5); format: binding
T2 construct: purchased Eurofins DiscoverX KINOMEscan
Experimental: as §1

MEK6 = molecular target: T3, MEK6 (Homo sapiens, UniProt P52564); format: binding
T3 construct: purchased Eurofins DiscoverX KINOMEscan
Experimental: as §1

MELK = molecular target: T4, MELK (Homo sapiens, UniProt Q14680); format: binding
T4 construct: purchased Eurofins DiscoverX KINOMEscan
T4 sequence (Q14680 whole entry): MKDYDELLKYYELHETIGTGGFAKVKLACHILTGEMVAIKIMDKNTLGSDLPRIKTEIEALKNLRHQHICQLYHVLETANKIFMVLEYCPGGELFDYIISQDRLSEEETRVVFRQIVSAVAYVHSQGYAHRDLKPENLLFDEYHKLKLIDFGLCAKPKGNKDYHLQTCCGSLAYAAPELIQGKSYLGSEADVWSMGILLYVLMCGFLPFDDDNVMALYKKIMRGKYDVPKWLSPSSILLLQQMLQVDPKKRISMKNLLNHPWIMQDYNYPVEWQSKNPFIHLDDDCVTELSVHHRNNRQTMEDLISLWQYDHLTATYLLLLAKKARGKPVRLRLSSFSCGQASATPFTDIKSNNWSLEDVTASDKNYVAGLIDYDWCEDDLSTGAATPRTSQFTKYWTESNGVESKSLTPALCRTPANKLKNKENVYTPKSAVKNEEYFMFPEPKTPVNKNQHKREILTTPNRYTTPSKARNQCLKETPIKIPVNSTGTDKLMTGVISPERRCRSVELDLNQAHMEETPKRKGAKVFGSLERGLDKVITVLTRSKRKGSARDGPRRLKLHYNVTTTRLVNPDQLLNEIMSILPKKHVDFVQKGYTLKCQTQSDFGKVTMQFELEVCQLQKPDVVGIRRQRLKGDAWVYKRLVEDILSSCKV
Experimental: as §1

BIKE = molecular target: T5, BIKE (Homo sapiens, UniProt Q9NSY1); format: binding
T5 construct: purchased Eurofins DiscoverX KINOMEscan
T5 sequence (Q9NSY1 whole entry): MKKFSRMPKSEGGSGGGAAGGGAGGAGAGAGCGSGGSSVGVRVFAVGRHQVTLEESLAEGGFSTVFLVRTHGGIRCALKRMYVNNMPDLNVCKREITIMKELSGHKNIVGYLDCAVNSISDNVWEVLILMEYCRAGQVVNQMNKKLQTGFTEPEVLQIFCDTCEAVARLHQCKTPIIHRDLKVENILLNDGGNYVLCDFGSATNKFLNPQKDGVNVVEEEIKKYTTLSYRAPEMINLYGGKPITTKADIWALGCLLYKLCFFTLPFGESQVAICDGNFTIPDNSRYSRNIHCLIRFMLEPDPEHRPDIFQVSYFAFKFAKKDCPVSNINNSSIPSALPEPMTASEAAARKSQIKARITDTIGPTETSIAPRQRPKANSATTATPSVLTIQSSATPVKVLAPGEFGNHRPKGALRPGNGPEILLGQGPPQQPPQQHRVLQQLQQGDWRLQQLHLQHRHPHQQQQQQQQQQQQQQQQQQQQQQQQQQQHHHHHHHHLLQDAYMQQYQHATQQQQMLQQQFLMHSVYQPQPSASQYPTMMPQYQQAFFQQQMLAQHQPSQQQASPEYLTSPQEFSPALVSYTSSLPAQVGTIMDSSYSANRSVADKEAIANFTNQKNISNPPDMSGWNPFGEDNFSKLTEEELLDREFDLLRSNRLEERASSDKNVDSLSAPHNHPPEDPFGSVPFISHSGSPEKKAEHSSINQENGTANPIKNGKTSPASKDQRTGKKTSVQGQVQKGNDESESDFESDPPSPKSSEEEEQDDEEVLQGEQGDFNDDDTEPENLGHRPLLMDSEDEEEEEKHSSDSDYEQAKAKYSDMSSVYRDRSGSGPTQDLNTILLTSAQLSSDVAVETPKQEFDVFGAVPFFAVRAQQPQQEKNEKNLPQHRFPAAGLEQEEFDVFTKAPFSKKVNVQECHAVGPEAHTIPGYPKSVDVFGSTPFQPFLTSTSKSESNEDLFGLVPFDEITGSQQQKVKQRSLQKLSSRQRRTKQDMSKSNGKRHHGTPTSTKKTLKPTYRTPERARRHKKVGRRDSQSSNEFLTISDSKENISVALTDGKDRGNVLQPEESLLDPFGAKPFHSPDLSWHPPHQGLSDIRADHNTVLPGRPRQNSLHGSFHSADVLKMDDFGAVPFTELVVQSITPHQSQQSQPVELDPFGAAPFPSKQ
Experimental: as §1

DYRK1A = molecular target: T6, DYRK1A (Homo sapiens, UniProt Q13627); format: binding; settings: for Kd: DYRK1A, N.B.: no binding at concentrations up to 30 µM
T6 construct: purchased Eurofins Pharma Discovery (KINOMEscan)
Experimental: as §1

ACVRL1 = molecular target: T7, ACVRL1 (Homo sapiens, UniProt P37023); format: binding
T7 construct: purchased Eurofins DiscoverX KINOMEscan
T7 sequence (P37023 22-503): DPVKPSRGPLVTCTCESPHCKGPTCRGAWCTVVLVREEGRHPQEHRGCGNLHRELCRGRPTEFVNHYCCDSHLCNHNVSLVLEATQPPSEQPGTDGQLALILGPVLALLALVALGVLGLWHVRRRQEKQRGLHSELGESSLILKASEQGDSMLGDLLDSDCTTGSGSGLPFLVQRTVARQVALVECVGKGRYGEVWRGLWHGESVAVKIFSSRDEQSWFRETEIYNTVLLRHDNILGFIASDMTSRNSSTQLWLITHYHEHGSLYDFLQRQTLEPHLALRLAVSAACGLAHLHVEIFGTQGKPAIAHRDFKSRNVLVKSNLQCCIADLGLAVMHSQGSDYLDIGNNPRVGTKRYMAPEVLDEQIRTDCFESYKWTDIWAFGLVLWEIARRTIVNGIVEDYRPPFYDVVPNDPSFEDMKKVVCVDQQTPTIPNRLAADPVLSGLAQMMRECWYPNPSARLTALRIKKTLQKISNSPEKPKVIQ
Experimental: as §1

NEK10 = molecular target: T8, NEK10 (Homo sapiens, UniProt Q6ZWH5); format: binding; settings: for Kd: NEK10, N.B.: no binding at concentrations up to 30 µM
T8 construct: purchased Eurofins Pharma Discovery (KINOMEscan)
T8 sequence (Q6ZWH5 1-1172): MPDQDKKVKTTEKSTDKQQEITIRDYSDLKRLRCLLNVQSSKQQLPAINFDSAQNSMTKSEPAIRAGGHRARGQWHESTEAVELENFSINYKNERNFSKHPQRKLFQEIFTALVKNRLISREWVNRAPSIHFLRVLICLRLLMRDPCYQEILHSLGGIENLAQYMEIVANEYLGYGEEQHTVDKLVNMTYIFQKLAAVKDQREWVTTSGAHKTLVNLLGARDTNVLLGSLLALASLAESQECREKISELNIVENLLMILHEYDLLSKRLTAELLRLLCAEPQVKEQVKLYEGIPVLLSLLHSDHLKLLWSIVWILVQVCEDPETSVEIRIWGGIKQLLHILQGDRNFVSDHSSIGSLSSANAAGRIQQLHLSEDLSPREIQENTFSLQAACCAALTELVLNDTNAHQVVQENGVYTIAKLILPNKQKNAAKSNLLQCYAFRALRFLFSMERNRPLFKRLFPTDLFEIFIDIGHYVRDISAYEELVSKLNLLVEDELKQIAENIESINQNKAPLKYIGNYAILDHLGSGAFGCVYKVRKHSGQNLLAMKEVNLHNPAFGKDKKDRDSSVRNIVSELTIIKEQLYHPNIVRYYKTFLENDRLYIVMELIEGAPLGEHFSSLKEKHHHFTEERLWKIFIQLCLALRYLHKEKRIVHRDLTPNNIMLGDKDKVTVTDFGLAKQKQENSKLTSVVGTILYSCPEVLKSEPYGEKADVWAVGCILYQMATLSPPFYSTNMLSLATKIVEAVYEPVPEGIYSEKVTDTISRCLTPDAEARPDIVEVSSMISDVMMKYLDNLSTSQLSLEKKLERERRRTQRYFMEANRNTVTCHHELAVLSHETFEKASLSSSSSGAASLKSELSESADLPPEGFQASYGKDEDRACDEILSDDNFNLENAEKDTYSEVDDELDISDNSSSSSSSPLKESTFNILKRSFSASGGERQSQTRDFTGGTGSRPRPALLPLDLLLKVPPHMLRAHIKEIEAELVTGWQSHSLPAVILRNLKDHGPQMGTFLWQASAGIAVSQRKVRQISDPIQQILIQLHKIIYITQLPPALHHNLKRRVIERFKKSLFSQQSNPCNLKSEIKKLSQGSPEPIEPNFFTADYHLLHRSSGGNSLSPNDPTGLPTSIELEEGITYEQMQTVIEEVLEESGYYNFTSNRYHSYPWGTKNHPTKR
Experimental: as §1

PIK3CD = molecular target: T9, PIK3CD (Homo sapiens, UniProt O00329); format: binding
T9 construct: purchased Eurofins DiscoverX KINOMEscan
Experimental: as §1

ABL1 (H396P)-P = molecular target: T10, ABL1 (H396P)-P (Homo sapiens, UniProt P00519, H396P); format: binding
T10 construct: purchased Eurofins DiscoverX KINOMEscan
Experimental: as §1

PIK3CB = molecular target: T11, PIK3CB (Homo sapiens, UniProt P42338); format: binding
T11 construct: purchased Eurofins DiscoverX KINOMEscan
T11 sequence (P42338 whole entry): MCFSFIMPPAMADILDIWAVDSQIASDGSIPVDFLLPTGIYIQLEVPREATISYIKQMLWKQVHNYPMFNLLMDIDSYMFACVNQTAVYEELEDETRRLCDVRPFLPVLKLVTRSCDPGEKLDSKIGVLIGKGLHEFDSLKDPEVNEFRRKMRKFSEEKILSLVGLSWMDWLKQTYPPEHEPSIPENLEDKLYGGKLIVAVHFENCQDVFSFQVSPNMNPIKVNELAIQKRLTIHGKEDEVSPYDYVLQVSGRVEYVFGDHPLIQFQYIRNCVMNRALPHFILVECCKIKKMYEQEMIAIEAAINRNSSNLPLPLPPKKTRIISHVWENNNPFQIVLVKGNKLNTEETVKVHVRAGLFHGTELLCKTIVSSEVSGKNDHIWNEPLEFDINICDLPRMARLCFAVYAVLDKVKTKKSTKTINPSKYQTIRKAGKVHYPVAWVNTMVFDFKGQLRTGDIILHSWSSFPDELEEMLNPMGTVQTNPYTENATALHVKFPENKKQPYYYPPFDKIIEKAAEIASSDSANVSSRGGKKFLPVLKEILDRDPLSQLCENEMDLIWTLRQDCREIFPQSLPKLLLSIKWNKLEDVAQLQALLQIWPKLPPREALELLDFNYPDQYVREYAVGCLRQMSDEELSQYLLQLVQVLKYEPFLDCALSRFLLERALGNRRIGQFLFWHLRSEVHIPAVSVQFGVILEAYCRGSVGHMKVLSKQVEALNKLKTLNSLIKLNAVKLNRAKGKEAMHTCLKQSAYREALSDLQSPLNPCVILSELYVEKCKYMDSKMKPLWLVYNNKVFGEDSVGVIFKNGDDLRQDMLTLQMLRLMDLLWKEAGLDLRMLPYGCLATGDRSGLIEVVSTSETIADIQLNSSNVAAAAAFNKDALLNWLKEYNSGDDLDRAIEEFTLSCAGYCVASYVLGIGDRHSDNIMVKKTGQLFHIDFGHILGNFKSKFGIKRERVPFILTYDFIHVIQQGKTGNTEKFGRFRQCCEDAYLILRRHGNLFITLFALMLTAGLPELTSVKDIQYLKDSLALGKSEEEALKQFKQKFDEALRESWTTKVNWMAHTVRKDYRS
Experimental: as §1

ABL1 (F317I)-P = molecular target: T12, ABL1 (F317I)-P (Homo sapiens, UniProt P00519, F317I); format: binding
T12 construct: purchased Eurofins DiscoverX KINOMEscan
Experimental: as §1

PIM2 = molecular target: T13, PIM2 (Homo sapiens, UniProt Q9P1W9); format: binding
T13 construct: purchased Eurofins DiscoverX KINOMEscan
Experimental: as §1

PIM1 = molecular target: T14, PIM1 (Homo sapiens, UniProt P11309); format: binding; settings: for Kd: PIM1, N.B.: no binding at concentrations up to 30 µM
T14 construct: purchased Eurofins Pharma Discovery (KINOMEscan)
T14 sequence (P11309 whole entry): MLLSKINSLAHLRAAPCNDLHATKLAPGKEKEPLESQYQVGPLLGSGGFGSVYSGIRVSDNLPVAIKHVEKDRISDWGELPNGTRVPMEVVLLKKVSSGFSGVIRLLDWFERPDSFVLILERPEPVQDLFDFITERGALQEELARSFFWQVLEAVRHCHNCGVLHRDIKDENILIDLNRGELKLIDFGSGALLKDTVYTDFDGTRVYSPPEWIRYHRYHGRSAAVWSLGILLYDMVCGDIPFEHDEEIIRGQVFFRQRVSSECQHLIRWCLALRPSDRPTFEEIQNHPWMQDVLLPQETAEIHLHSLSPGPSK
Experimental: as §1

NEK7 = molecular target: T15, NEK7 (Homo sapiens, UniProt Q8TDX7); format: binding
T15 construct: purchased Eurofins DiscoverX KINOMEscan
Experimental: as §1

HIPK1 = molecular target: T16, HIPK1 (Homo sapiens, UniProt Q86Z02); format: binding; settings: for Kd: HIPK1, N.B.: no binding at concentrations up to 30 µM
T16 construct: purchased Eurofins Pharma Discovery (KINOMEscan)
T16 sequence (Q86Z02 whole entry): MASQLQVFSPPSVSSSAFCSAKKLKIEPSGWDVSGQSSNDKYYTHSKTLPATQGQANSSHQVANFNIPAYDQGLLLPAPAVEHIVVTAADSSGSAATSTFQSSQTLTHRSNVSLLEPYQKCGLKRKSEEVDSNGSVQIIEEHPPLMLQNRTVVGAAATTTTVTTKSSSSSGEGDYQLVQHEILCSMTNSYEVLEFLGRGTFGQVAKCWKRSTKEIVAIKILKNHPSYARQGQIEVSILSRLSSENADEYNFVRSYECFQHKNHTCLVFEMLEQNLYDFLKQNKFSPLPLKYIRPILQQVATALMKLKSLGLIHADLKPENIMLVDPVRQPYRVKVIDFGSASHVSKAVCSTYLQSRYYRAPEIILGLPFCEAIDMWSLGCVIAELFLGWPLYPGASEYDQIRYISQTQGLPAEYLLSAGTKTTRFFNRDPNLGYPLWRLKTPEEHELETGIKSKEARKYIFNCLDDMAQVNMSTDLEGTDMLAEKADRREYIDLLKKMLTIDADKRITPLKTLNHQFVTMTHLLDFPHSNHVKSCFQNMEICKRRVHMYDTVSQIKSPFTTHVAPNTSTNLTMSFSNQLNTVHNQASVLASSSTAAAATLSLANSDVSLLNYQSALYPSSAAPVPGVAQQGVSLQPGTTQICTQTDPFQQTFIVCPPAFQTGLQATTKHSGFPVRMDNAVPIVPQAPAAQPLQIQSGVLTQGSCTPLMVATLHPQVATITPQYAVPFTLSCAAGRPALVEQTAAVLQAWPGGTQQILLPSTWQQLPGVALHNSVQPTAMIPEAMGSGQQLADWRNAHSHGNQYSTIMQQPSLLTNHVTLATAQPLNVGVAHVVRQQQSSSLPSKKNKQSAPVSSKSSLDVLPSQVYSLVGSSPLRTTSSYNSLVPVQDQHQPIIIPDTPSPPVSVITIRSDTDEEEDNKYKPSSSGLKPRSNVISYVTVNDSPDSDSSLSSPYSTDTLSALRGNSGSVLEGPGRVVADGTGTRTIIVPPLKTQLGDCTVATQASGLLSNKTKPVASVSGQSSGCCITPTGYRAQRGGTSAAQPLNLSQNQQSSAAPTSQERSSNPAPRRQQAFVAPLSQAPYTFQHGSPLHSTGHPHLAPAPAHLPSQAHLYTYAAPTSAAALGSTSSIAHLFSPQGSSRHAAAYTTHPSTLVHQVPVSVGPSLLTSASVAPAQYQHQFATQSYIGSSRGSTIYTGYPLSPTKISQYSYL
Experimental: as §1

FES = molecular target: T17, FES (Homo sapiens, UniProt P07332); format: binding
T17 construct: purchased Eurofins DiscoverX KINOMEscan
Experimental: as §1

MST2 = molecular target: T18, MST2 (Homo sapiens, UniProt Q13188); format: binding
T18 construct: purchased Eurofins DiscoverX KINOMEscan
Experimental: as §1

O=C1Nc2c(cc([N+](=O)[O-])c3c2CCCC3)C1=NO [Compound 5d, 3-(Hydroxyimino)-5-nitro-1,3,6,7,8,9-hexahydro-2H-benzo[g]indol-2-one]
Inhib. (%) (FLT3 (ITD, F691L)): 66% | Inhib. (%) [1]: 22% | Inhib. (%) (FLT3 (ITD)): 29% | Inhib. (%) (FLT3 (ITD, D835V)): 65% | inhibition at 10 µM (IRAK4): 86% | inhibition at 10 µM (MAP3K19): 95.8% | inhibition at 10 µM (MEK6): 3% | inhibition at 10 µM (MELK): 56% | inhibition at 10 µM (BIKE): 75% | inhibition at 10 µM (DYRK1A; 10 μM): 98.8% | Kd (DYRK1A): 435 ± 78 nM | inhibition at 10 µM (ACVRL1): 0% | inhibition at 10 µM (NEK10; 10 μM): 100% | Kd (NEK10): 660 ± 71 nM | inhibition at 10 µM (PIK3CD): 42% | inhibition at 10 µM (ABL1 (H396P)-P): 41% | inhibition at 10 µM (PIK3CB): 0% | inhibition at 10 µM (ABL1 (F317I)-P; first of two lines printed ABL1 (F317I)-P): 7% | inhibition at 10 µM (ABL1 (F317I)-P; second of two lines printed ABL1 (F317I)-P): 0% | inhibition at 10 µM (PIM2): 96% | inhibition at 10 µM (PIM1; 10 μM): 98.2% | Kd (PIM1): 122 ± 54 nM | inhibition at 10 µM (NEK7): 26% | inhibition at 10 µM (HIPK1; 10 μM): 98.5% | Kd (HIPK1): 520 ± 113 nM | inhibition at 10 µM (FES): 0% | inhibition at 10 µM (MST2): 39%

O=C1Nc2c(ccc3c2CCCC3)C1=NO [Compound 5a, 3-(Hydroxyimino)-1,3,6,7,8,9-hexahydro-2H-benzo[g]indol-2-one]
Kd (DYRK1A): 850 ± 120 nM | Kd (NEK10): 3200 ± 1000 nM | Kd (PIM1): 1800 ± 100 nM | Kd (HIPK1): 1100 ± 70 nM
